In series [1] the test system is common house mosquito (Culex pipiens pallens). The series can be described thus: Test Example 12: common house mosquito larvae mortality in treated water. In kind it is in vivo. The following applies: active ingredient 3.5 ppm in water; last instar larvae; after 8 days. Here is the method: A water dilution containing a surfactant prepared by adjusting so as to contain a predetermined concentration (500 ppm) of any one compound of the present compounds 20, 29, and 79 was used as a test chemical solution.
The above test chemical solution (0.7 mL) was added to 100 mL of deionized water to adjust the concentration of an active ingredient to 3.5 ppm. Twenty (20) heads of last instar larvae of common house mosquito (Culex pipiens pallens) were released in the solution and the number of dead insects was counted after 8 days.
Mortality was determined by the following equation. Mortality (%)=(number of dead insects/number of test insects)×100

The test system of series [2] is cucumber powdery mildew fungus (Sphaerotheca fuliginea). Kind of series: Test Example 6 and Comparative Test Example: cucumber powdery mildew control by foliar spray. In kind it is in vivo. Conditions: 500 ppm spray on cucumber (SAGAMI HANJIRO); 8 days after inoculation.

Here are results for four molecules from patent US9512090B2, “Tetrazolinone compound and use thereof” (Sumitomo Chemical Company, Limited, priority 2013, dated 2016).

As usually defined, the mortality is the share of the test organisms that died. A higher mortality goes with a strong lethal effect. In series [1], `Cc1cc(OCc2c(C)cccc2-n2nnn(C)c2=O)ccc1-c1ccccc1` [compound 29] gave a mortality of 100%. In the case of `COc1ccccc1-c1ccc(OCc2c(OC)cccc2-n2nnn(C)c2=O)c(C)c1` [compound 20], the mortality in series [1] amounted to 100%. For `Cc1ccc(OCc2ccccc2-n2nnn(C)c2=O)cc1` [1-{2-(4-methylphenoxymethyl)phenyl}-4-methyl-1,4-dihydrotetrazol-5-one], the “area of lesion spots on the treated plant relative to that on an untreated plant” value in series [2] is listed as no less than 70%.

As to `CCN(c1ccccc1)c1ccc(OCc2c(C)cccc2-n2nnn(C)c2=O)c(C)c1` [compound 79], the mortality in series [1] is given as 100%.
